PubChem BioAssay AID1328 (NMMLSC, 2008)
Activity calls are given as the source filed them. No rule for the calls is given here.

Biological target: Apoptosis regulator Bcl-2 (Homo sapiens) (UniProt P10415)
Assay: Bim-Bcl-2 binding modulators, biochemical, multiplexed, high-throughput, human Bcl-2 (AID 1328)
Conditions: Bead-based flow cytometry, fluorescent Bim peptide-Bcl-2 binding

Chain of Apoptosis regulator Bcl-2 (Homo sapiens) (P10415 whole entry, looked up): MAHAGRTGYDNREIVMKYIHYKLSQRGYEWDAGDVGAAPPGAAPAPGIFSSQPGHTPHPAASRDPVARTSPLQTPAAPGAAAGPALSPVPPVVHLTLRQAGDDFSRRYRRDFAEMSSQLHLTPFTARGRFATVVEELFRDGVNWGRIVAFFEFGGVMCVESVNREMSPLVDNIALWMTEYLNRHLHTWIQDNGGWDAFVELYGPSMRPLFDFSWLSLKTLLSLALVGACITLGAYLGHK

EC50, inactive:
CCC(=O)N(CC)C1=C(O)c2ccccc2C(=O)C1=O
COc1cc(/C=N/Nc2nn3cnnc3c3ccccc23)ccc1O
Clc1ccc2c(N/N=C/c3ccccc3Br)ccnc2c1
CN(C)[C@@H]1C(=O)C(C(=O)NCN2CCCC2)=C(O)[C@@]2(O)C(=O)C3=C(O)c4c(O)cccc4[C@@](C)(O)C3CC12 (stereo not given in full)
O=[N+]([O-])c1ccc(N/N=C/c2ccc(O)c(O)c2O)c(S(=O)(=O)N2CCOCC2)c1
